Assay results: paper PMC9180621, “Preparation of Novel Pyrazolo[4,3-e]tetrazolo[1,5-b][1,2,4]triazine Sulfonamides and Their Experimental and Computational Biological Studies” (International Journal of Molecular Sciences, 2022)
Values joined by “and” are separate entries in the source; they are usually repeats but may differ in a detail not shown here. Equal entries are not always repeated.

Legend:
BxPC-3 cells [1] = assay: MTT assay, cell viability; format: cell-based; settings: Homo sapiens, BxPC-3, 72 h incubation, ± SD
Protocol: (§1) A statistical program (Graphpad Prism 7) was used to analyze obtained data (MTT test). The dose–response analysis was performed to estimate the inhibitory concentration (IC50) of the tested compounds. The IC50 value is defined as a concentration of the tested compound that leads to a reduction in cell pool viability by 50% compared to the negative control (accepted as 100%). % cell viability=Absorbance value of treated cells−Absorbance value of blank/Absorbance value of untreated cells−Absorbance value of blank×100%
(§2) To estimate cell viability following 72 h incubation with the tested MM-compounds (MM134, MM136, MM137, and MM139), the MTT test was used according to the PN-EN ISO 10993-5. It is a quantitative method based on the tetrazolium yellow dye MTT [3(4,5-dimethyl-2-thiazolyl)-2,5-diphenyl-2H-tetrazolium bromide], which is converted by living cells to a purple product, formazan, the concentration of which was measured colorimetrically. The MTT assay was performed according to the procedure described by Mosmann with modifications. At a density of approximately 8 × 10^3 cells per 100 µL/well, 96-well plates were seeded. Following the given incubation period in controlled conditions (37 °C; 5% CO2), cells were exposed to different concentrations of tested compounds in DMSO (range 0.05–3 µM) in a volume of 100 µL medium per well. Final solvent concentration of DMSO was < 0.5% v/v. The experimental design included vehicle controls and blanks (wells without cells).
(§3) After 72 h of incubation of cells with tested MM-compounds, 20 µL of MTT tetrazolium salt (5 mg/mL in PBS) was added to each well, and plates were incubated once again in a humidified atmosphere for 3 h (37 °C; 5% CO2). Following the incubation time, the solutions were removed and 100 µL of DMSO was added to dissolve the formazan complexes. Subsequently, a spectrophotometer (microplate reader Power Wave XS BioTek Instruments, Inc., Winooski, VT, USA) reading was performed at 570 nm. The experiments were performed in duplicates.

WI-38 cells = assay: MTT assay, cell viability; format: cell-based; settings: WI-38 normal human fibroblasts, 72 h incubation, ± SD
Protocol: as §1, §2, §3

L929 cells = assay: MTT assay, cell viability; format: cell-based; settings: L929 normal mouse fibroblasts, 72 h incubation, ± SD
Protocol: as §1, §2, §3

BxPC-3 cells [2] = assay: MitoTracker Red, mitochondria membrane potential; format: cell-based, human
Protocol: (§4) The fitness of the mitochondria and changes in MMP were assessed using MitoTracker Red. Data for experimental groups were presented as mean percentage of control group fluorescence intensity ± SD value (Figure 11, Table 2). Mitotracker Red is deposited in the mitochondrial matrix in response to changes in the inner transmembrane potential of the mitochondria. The intensity of fluorescence reflects the fitness of the mitochondria and alters with changes in MMP [91]. BxPC-3 and PC-3 cells were seeded at appropriate density on a 96-well plates (Table 9). […] After appropriate incubation time, cells were incubated with MitoTracker Red (0.1 µM/200 µL PBS/well) for 40 min. Afterward, MitoTracker Red solution was removed from the wells and PBS (200 µL/well) was added. Fluorescence was read at an […] of 581/644 nm using the SpectraMax® i3x Multi-Mode Detection Platform.

PC-3 cells [3] = assay: MitoTracker Red, mitochondria membrane potential; format: cell-based, human
Protocol: as §4

BxPC-3 cells [4] = assay: Annexin V-FITC/propidium iodide flow cytometry, apoptosis; format: cell-based, human; settings: IC50 concentration, Annexin V-FITC, ± SD
Protocol: (§5) Data are presented as mean percentage of apoptotic cells (early and late apoptotic) ± SD values. The differences between the experimental samples and vehicle control were evaluated by the ANOVA test followed by Tukey’s test (p < 0.05). Experiments were performed in triplicate. For flow cytometry analysis with Annexin V-FITC staining, the approximate number of analyzed cells was (N = 1 × 10^4), contrasting with the dual acridine orange/ethidium bromide (AO/EB) fluorescent staining (N = 200).
(§6) The Annexin V-FITC Apoptosis Detection Kit was used to estimate the apoptosis induction following 24 and 48 h incubation with the tested MM-compounds. During apoptosis, phosphatidylserine is transformed from the inner cell membrane to the cell surface, which can be detected by the annexin-FITC complex. The addition of propidium iodide to the reaction mixture allows the assessment of cell membrane integrity. Using flow cytometry analysis, four subpopulations of cells can be distinguished: alive (non-stained), necrotic (propidium iodide stained), early apoptotic (annexin V stained cells), or late-apoptotic cells (propidium iodide and annexin V stained). BxPC-3 and PC-3 cells were seeded at appropriate density on a 6-well plate (Table 9).
(§7) The experimental design included vehicle control (final solvent concentration was < 0.5% v/v DMSO), and cells treated with 2 µM SN-38 (active metabolite of irinotecan) used as a positive compensation control. Cells were left for incubation for another 24 or 48 h (37 °C; 5% CO2). After exposure, cells were trypsinized and transferred to cytometric tubes, left for 40 min, and centrifuged at 1400 rpm for 10 min at 4 °C. Afterward, the supernatant was removed, and the precipitate was diluted in 1 mL of PBS. The rest of the procedure was performed according to the manufacturer’s instructions. The results were obtained from three independent experiments.

PC-3 cells [5] = assay: as above; format: cell-based, human; settings: PC-3, 48 h incubation, Annexin V-FITC, ± SD, control 8.37 ± 1.06%
Protocol: as §5, §6, §7

PC-3 cells [6] = assay: MTT assay, cell viability; format: cell-based, human; settings: for IC50: Homo sapiens, PC-3, 72 h incubation, MTT, ± SD
Protocol: as §1, §2, §3

[7] = BxPC-3, 24 h incubation, 0.5IC50, ± SD
[8] = BxPC-3, 24 h incubation, 2xIC50, ± SD
[9] = BxPC-3, 24 h incubation, IC50, ± SD
[10] = BxPC-3, 48 h incubation, 0.5IC50, ± SD
[11] = BxPC-3, 48 h incubation, 2xIC50, ± SD
[12] = BxPC-3, 48 h incubation, IC50, ± SD
[13] = PC-3, 24 h incubation, 0.5IC50, ± SD
[14] = PC-3, 24 h incubation, 2xIC50, ± SD
[15] = PC-3, 24 h incubation, IC50, ± SD
[16] = PC-3, 48 h incubation, 0.5IC50, ± SD
[17] = PC-3, 48 h incubation, 2xIC50, ± SD
[18] = PC-3, 48 h incubation, IC50, ± SD
[19] = BxPC-3, 24 h incubation, control 10.3 ± 2.09%
[20] = BxPC-3, 48 h incubation, control 8.3 ± 1.13%

Compound: Cc1nn(-c2ccc(S(=O)(=O)NCCN3CCOCC3)cc2)c2nn3nnnc3nc12 [MM134]
- IC50 (BxPC-3 cells [1]): 320 ± 100 nM
- IC50 (WI-38 cells): 650 ± 70 nM
- IC50 (L929 cells): 580 ± 5 nM
- mean percentage of control group fluorescence intensity (MMP) (BxPC-3 cells [2]; [7]): 88.19 ± 13.62%
- mean percentage of control group fluorescence intensity (MMP) (BxPC-3 cells [2]; [8]): 78.31 ± 14.34%
- mean percentage of control group fluorescence intensity (MMP) (BxPC-3 cells [2]; [9]): 81.23 ± 11.94%
- mean percentage of control group fluorescence intensity (MMP) (BxPC-3 cells [2]; [10]): 79.98 ± 11.47%
- mean percentage of control group fluorescence intensity (MMP) (BxPC-3 cells [2]; [11]): 68.95 ± 7.78%
- mean percentage of control group fluorescence intensity (MMP) (BxPC-3 cells [2]; [12]): 66.04 ± 16.7%
- mean percentage of control group fluorescence intensity (MMP) (PC-3 cells [3]; [13]): 100.35 ± 1.57%
- mean percentage of control group fluorescence intensity (MMP) (PC-3 cells [3]; [14]): 82.34 ± 2.13%
- mean percentage of control group fluorescence intensity (MMP) (PC-3 cells [3]; [15]): 82.5 ± 2.21%
- mean percentage of control group fluorescence intensity (MMP) (PC-3 cells [3]; [16]): 82.1 ± 14.45%
- mean percentage of control group fluorescence intensity (MMP) (PC-3 cells [3]; [17]): 64.56 ± 3.33%
- mean percentage of control group fluorescence intensity (MMP) (PC-3 cells [3]; [18]): 80.26 ± 13.44%
- mean percentage of apoptotic cells (early and late apoptotic) (BxPC-3 cells [4]; [19]): 65.3 ± 9.1%
- mean percentage of apoptotic cells (early and late apoptotic) (BxPC-3 cells [4]; [20]): 86.9 ± 1.16%
- mean percentage of apoptotic cells (early and late apoptotic) (PC-3 cells [5]; 2xIC50 concentration): 20.37 ± 2.5%
- IC50 (PC-3 cells [6]): 160 ± 20 nM
- times higher cytotoxic activity in PC-3 compared to normal human fibroblasts (WI-38) (PC-3 cells [6]; ratio of MTT IC50, PC-3 vs WI-38): 4 times

Compound: Cc1nn(-c2ccc(S(=O)(=O)N3CCN(C)CC3)cc2)c2nn3nnnc3nc12 [MM137]
- IC50 (BxPC-3 cells [1]): 160 ± 40 nM
- IC50 (WI-38 cells): 270 ± 40 nM
- IC50 (L929 cells): 180 ± 0.8 nM
- mean percentage of control group fluorescence intensity (MMP) (BxPC-3 cells [2]; [7]): 89.34 ± 5.91%
- mean percentage of control group fluorescence intensity (MMP) (BxPC-3 cells [2]; [8]): 79.22 ± 2.22%
- mean percentage of control group fluorescence intensity (MMP) (BxPC-3 cells [2]; [9]): 79.5 ± 3.34%
- mean percentage of control group fluorescence intensity (MMP) (BxPC-3 cells [2]; [10]): 84.62 ± 9.01%
- mean percentage of control group fluorescence intensity (MMP) (BxPC-3 cells [2]; [11]): 73.8 ± 2.58%
- mean percentage of control group fluorescence intensity (MMP) (BxPC-3 cells [2]; [12]): 79.8 ± 6.76%
- mean percentage of control group fluorescence intensity (MMP) (PC-3 cells [3]; [13]): 96.26 ± 2.83%
- mean percentage of control group fluorescence intensity (MMP) (PC-3 cells [3]; [14]): 82.5 ± 7.99%
- mean percentage of control group fluorescence intensity (MMP) (PC-3 cells [3]; [15]): 87.9 ± 2.71%
- mean percentage of control group fluorescence intensity (MMP) (PC-3 cells [3]; [16]): 78.26 ± 2.62%
- mean percentage of control group fluorescence intensity (MMP) (PC-3 cells [3]; [17]): 64.19 ± 8.72%
- mean percentage of control group fluorescence intensity (MMP) (PC-3 cells [3]; [18]): 75.49 ± 5.55%
- mean percentage of apoptotic cells (early and late apoptotic) (BxPC-3 cells [4]; [19]): 18.9 ± 2.95%
- mean percentage of apoptotic cells (early and late apoptotic) (BxPC-3 cells [4]; [20]): 40.8 ± 1.36%
- mean percentage of apoptotic cells (early and late apoptotic) (PC-3 cells [5]; 2xIC50 concentration): 38.93 ± 4%
- mean percentage of apoptotic cells (early and late apoptotic) (PC-3 cells [5]; IC50 concentration): 22.57 ± 3.18%
- IC50 (PC-3 cells [6]): 110 ± 7 nM

Compound: Cc1nn(-c2ccc(S(=O)(=O)N3CCCCC3)cc2)c2nn3nnnc3nc12 [MM139]
- IC50 (BxPC-3 cells [1]): 330 ± 140 nM
- IC50 (WI-38 cells): 540 ± 60 nM
- IC50 (L929 cells): 260 ± 20 nM
- mean percentage of control group fluorescence intensity (MMP) (BxPC-3 cells [2]; [7]): 81.28 ± 14.44%
- mean percentage of control group fluorescence intensity (MMP) (BxPC-3 cells [2]; [8]): 64.23 ± 6.08%
- mean percentage of control group fluorescence intensity (MMP) (BxPC-3 cells [2]; [9]): 66.73 ± 3.72%
- mean percentage of control group fluorescence intensity (MMP) (BxPC-3 cells [2]; [10]): 76.9 ± 6.40%
- mean percentage of control group fluorescence intensity (MMP) (BxPC-3 cells [2]; [11]): 65.95 ± 12.53%
- mean percentage of control group fluorescence intensity (MMP) (BxPC-3 cells [2]; [12]): 60.35 ± 0.91%
- mean percentage of control group fluorescence intensity (MMP) (PC-3 cells [3]; [13]): 89.2 ± 6.28%
- mean percentage of control group fluorescence intensity (MMP) (PC-3 cells [3]; [14]): 78.14 ± 6.56% and 78.14 ± 6.55%
- mean percentage of control group fluorescence intensity (MMP) (PC-3 cells [3]; [15]): 87.28 ± 15.8%
- mean percentage of control group fluorescence intensity (MMP) (PC-3 cells [3]; [16]): 78.91 ± 15.21%
- mean percentage of control group fluorescence intensity (MMP) (PC-3 cells [3]; [17]): 61.28 ± 9.16%
- mean percentage of control group fluorescence intensity (MMP) (PC-3 cells [3]; [18]): 65.93 ± 19.56%
- mean percentage of apoptotic cells (early and late apoptotic) (BxPC-3 cells [4]; [19]): 59.6 ± 7.42%
- mean percentage of apoptotic cells (early and late apoptotic) (BxPC-3 cells [4]; [20]): 85.4 ± 6.25%
- mean percentage of apoptotic cells (early and late apoptotic) (PC-3 cells [5]; 2xIC50 concentration): 15 ± 2.42%
- IC50 (PC-3 cells [6]): 170 ± 3 nM
